The results in this text go back to patent US4609758A, “Phenoxyethylamine derivatives” (American Home Products Corporation, priority 1985, dated 1986).

The structures appear in SMILES notation.

For test [1], the system named is synaptosomal uptake of norepinephrine. Nature of the test: Inhibition of synaptosomal norepinephrine (3H-NE) uptake. Format: biochemical. The settings on record: synaptosomal uptake of 3H-NE, read-out: NE uptake, inhibitory concentration at which the rate of uptake was reduced to 50 percent (IC50).
The next test concerns the target muscarinic receptor. Description: Inhibition of 3H-QNB binding (QNB receptor binding assay). The settings on record: for Ki / IC50: inhibition of 3H-QNB binding; for anticholinergic property reflected by inhibition of binding of the muscarinic receptor ligand 3H-QNB (in words): 3H-quinuclidinyl benzilate.
The subject of test [2] is synaptosomal uptake of serotonin (5-HT). Description: Inhibition of synaptosomal serotonin (14C-5-HT) uptake. Format: biochemical. The settings on record: synaptosomal uptake of 14C-5-HT, read-out: 5-HT uptake, inhibitory concentration at which the rate of uptake was reduced to 50 percent (IC50).

In the case of `CN(C)CCC=C1c2ccccc2CCc2ccccc21` [Amitriptyline, reference compound], in test [1], the IC50 amounted to […].
`CNCCCN1c2ccccc2CCc2ccccc21` [DMI, reference compound] showed a Ki on muscarinic receptor of […]. In addition, in test [1], the IC50 was 150 nM.
On to `CN(C)CC(Oc1ccc(Cl)cc1)C1(O)CCCCC1` (centres unmarked) [Example 1, 1-[1-(4-Chlorophenoxy)-2-(dimethylamino)ethyl]cyclohexanol], for which the values for the IC50 (in test [2]; on muscarinic receptor; in test [1]) were 170 nM, greater than 10000 nM and 220 nM, respectively. Besides, in the test with muscarinic receptor, the “anticholinergic property reflected by inhibition of binding of the muscarinic receptor ligand 3H-QNB (in words)” value was “essentially inactive”.
As for `CN(C)CC(Oc1ccc(Cl)cc1Cl)C1(O)CCCCC1` (centres unmarked) [Example 2, 1-[1-(2,4-Dichlorophenoxy)-2-(dimethylamino)ethyl]cyclohexanol], the values for the IC50 (in test [2]; at muscarinic receptor; in test [1]) were 530 nM, greater than 10000 nM and 3140 nM, respectively. Besides, the “anticholinergic property reflected by inhibition of binding of the muscarinic receptor ligand 3H-QNB (in words)” value in the test on muscarinic receptor was “essentially inactive”.
For `CN(C)CC(Oc1ccc(Cl)cc1Cl)C1(O)CCCC1` (centres unmarked) [Example 3, 8-[1-(2,4-Dichlorophenoxy)-2-(dimethylamino)ethyl]cyclopentanol], the IC50 was 440 nM in test [2] and 2250 nM in test [1].
As for `COc1ccc(OC(CN(C)C)C2(O)CCCCC2)cc1` (centres unmarked) [Example 4, 1-[2-(Dimethylamino)-1-(4-methoxyphenoxy)ethyl]cyclohexanol], the IC50 in test [2] was 180 nM; in test [1] it was 920 nM.
On to `COc1ccc(OC(CN(C)C)C2(O)CCCCCC2)cc1` (centres unmarked) [Example 5, 1-[2-(Dimethylamino)-1-(4-methoxyphenoxy)ethyl]cycloheptanol], for which the IC50 in test [2] amounted to 170 nM; in test [1], 810 nM.
For `COc1ccc(OC(CN(C)C)C2(O)CCCC2)cc1` (centres unmarked) [Example 6, 1-[2-(dimethylamino)-1-(4-methoxyphenoxy)ethyl]cyclopentanol], in that order: 640 nM and 3140 nM.
Regarding `CN(C)CC(Oc1cccc(C(F)(F)F)c1)C1(O)CCCCC1` (centres unmarked) [Example 7, 1-[2-(dimethylamino)-1-(3-trifluoromethylphenoxy)ethyl]cyclohexanol], the IC50 in test [2] worked out at 1200 nM; in test [1], 2350 nM.
`CN(C)CC(Oc1ccc(C(F)(F)F)cc1)C1(O)CCCCC1` (centres unmarked) [Example 8, 1-[2-Dimethylamino-1-(4-trifluoromethylphenoxy)ethyl]cyclohexanol]: the IC50 in test [2] was 340 nM; in test [1], 2500 nM.
Take `CN(C)CC(Oc1ccc(C(F)(F)F)cc1)C1(O)CCCCCC1` (centres unmarked) [Example 9, 1-[2-Dimethylamino-1-(4-trifluoromethylphenoxy)ethyl]cycloheptanol]: the IC50 in test [2] came out at 490 nM; in test [1], 3780 nM.
As to `COc1cccc(OC(CN(C)C)C2(O)CCCCC2)c1` (centres unmarked) [Example 10, 1-[2-(Dimethylamino)-1-(3-methoxyphenoxy)ethyl]cyclohexanol], the IC50 amounted to 700 nM in test [2] and 1160 nM in test [1].
In the case of `COc1cccc(OC(CN(C)C)C2(O)CCCCCC2)c1` (centres unmarked) [Example 11, 1-[2-(Dimethylamino)-1-(3-methoxyphenoxy)ethyl]cycloheptanol], the IC50 came to 900 nM in test [2] and 1160 nM in test [1].
Consider `COc1cccc(OC(CN(C)C)C2(O)CCCC2)c1` (centres unmarked) [Example 12, 1-[2-(Dimethylamino)-1-(3-methoxyphenoxy)ethyl]cyclopentanol], for which the IC50 was 970 nM in test [2] and 1580 nM in test [1].
For `CNCCC(Oc1ccc(C(F)(F)F)cc1)c1ccccc1` (centres unmarked) [Fluoxetine, reference compound], the IC50 in test [1] turned out to be 4500 nM.
On to `CN(C)CCCN1c2ccccc2CCc2ccccc21` [Imipramine, reference compound], for which the IC50 in test [2] is 120 nM; in test [1] it was 260 nM. This molecule gave a Ki on muscarinic receptor of 37 nM.

One may read the Ki as a measure of affinity in units of concentration, obtained from inhibition or displacement.
